From patent publication US20130316006A1, “PARTICLES, COMPOSITIONS AND METHODS FOR OPHTHALMIC AND/OR OTHER APPLICATIONS” (Kala Pharmaceuticals, Inc., priority 2012, published 2013) come the findings set out here.

The nature of data set [1]: Chemical stability of LE formulations to 25 kGy gamma irradiation (degradant concentrations). In kind it is physicochemical. On the procedure:
Gamma irradiation of a formulation can cause chemical degradation and free radical generation and is a concern especially in aqueous formulations. LE is a soft steroid designed to metabolize via the hydrolytic or enzymatic cleavage of two ester bonds into PJ-91 and PJ-90. […] The concentrations of the degradants were measured immediately after being subjected to gamma irradiation (“Gamma irradiated initial”) and 4 weeks after being subjected to gamma irradiation (“gamma irradiated after 4 weeks”) using a Cobalt 60 gamma irradiation source at a dose of 25 kGy. […] [table]

A short description of the next data set: physchem. Particulars: 25 °C, water.
A further data set concerns VEGF. As to the kind of experiment: Rabbit VEGF-challenge model, leakage by fluorescein angiography. The settings on record: axitinib-MPP 5%, 50 μL every 4 hours days 1-6; Avastin one intravitreal injection day 1; VEGF day 3; angiography day 6. In kind it is in vivo, Dutch belted rabbits. From the text:
On day 3, the rabbits received an intravitreal injection of VEGF. On day 6, the rabbits were accessed for leakage via fluorescein angiography.
In this model, Dutch belted rabbits were given an intravitreal injection of VEGF to stimulate vascular growth. Fluorescein angiography was used to determine the degree to which the rabbits developed abnormal vascular and leakage.

Consider `CCOC(=O)O[C@]1(C(=O)OCCl)CC[C@H]2[C@@H]3CCC4=CC(=O)C=C[C@]4(C)[C@H]3[C@@H](O)C[C@@]21C` [LE, loteprednol etabonate], for which the “Amount of tetradeca when LE is gamma-irradiated” value in data set [1] is reported as “above 1%”. The term solubility denotes how much of the substance goes into solution per volume. A low value points to a poorly soluble substance. In turn, `Nc1c(CC(=O)O)cccc1C(=O)c1ccc(Br)cc1` [bromfenac calcium] showed a solubility in the data set “physchem” of around 150 µg/mL.

Turning to “Avastin®: bevacizumab; positive control, one intravitreal injection”, the “Vessel growth and vascular leakage after intravitreal VEGF” value in the data set with VEGF is reported as “no change in retinal vasculature”.
